US20210315898A1, “COMBINATION THERAPY FOR TREATING CANCER” (AstraZeneca AB, priority 2018, published 2021)

Columns and labels:
[1] = system: HL-60 AML cells; test: HL-60 subcutaneous xenograft model of AML, tumor volume and survival; type: in vivo, SCID mice; details: HL-60 xenograft, FIG. 2; AZD2811 nanoparticles 25 mg/kg iv once weekly; 5-azacytidine 1 mg/kg ip twice-daily for three days, 4 rest days; 3 weekly cycles, start day 7; monotherapy compared with KG1a model
Description: (§1) HL-60: 1×10^7 HL-60 AML cells in 50% matrigel were implanted subcutaneously on the left flank of adult female SCID mice. Mice were randomised into groups of 12 and dosing was started for all drugs and all combinations at day 7 respectively following implant. AZD2811 nanoparticles were dosed at once weekly with a 20-30 s intravenous infusion at either 25 mg/kg (100 mg/kg was the maximum tolerated dose in combination 5-azacytidine at 1 mg/kg; 5-azacytidine was dosed twice-daily for three days by the intraperitoneal route, followed by 4 rest days of no dosing). All drugs were given for 3 weekly cycles. Tumors were measured twice weekly by single operators, and all dosing was performed by randomised cage to minimise systematic bias. Mice reached study survival endpoint when tumors reached 1.5 cm^3

[2] = system: KG1a AML cells; test: KG1a subcutaneous xenograft model of AML, tumor volume; type: in vivo, SCID mice; details: FIG. 1, AZD2811 nanoparticles 100 mg/kg iv once weekly, 5-azacytidine 1 mg/kg ip twice-daily for three days, 4 rest days, 3 weekly cycles, start day 1
Description: as §1, with “KG1a: 2×10^7 KG1a” for “HL-60: 1×10^7 HL-60”, “1 (D1)” for “7 respectively”, “100” for “either 25”, “surival” for “survival”, “cm^3.” for “cm^3”

Nc1ncn([C@@H]2O[C@H](CO)[C@@H](O)[C@H]2O)c(=O)n1 [5-azacytidine, 4-amino-1-(β-D-ribofuranosyl)-1,3,5-triazin-2(1H)-one]
efficacy (reduction in tumor volume over time) [1]: greater efficacy | efficacy (reduction in tumor volume over time) [2]: modestly efficacious
